Assay: xn = mol fraction of the nth substance listed
Details: 101 kPa, Liquid

CCCCn1cc[n+](C)c1.O=S(=O)([O-])C(F)(F)F [1-butyl-3-methylimidazolium trifluoromethanesulfonate] + O
Details	mass density [kg/m3]	viscosity [mPa·s]
303.15 K, x2 = 0	1298.4	63.19
303.15 K, x2 = 0.1032	1294.5	45.7
303.15 K, x2 = 0.1939	1291.2	35.41
303.15 K, x2 = 0.2987	1286.5	28.97
303.15 K, x2 = 0.3999	1280.8	23.25
303.15 K, x2 = 0.501	1272.8	19.19
303.15 K, x2 = 0.5923	1263	15.47
303.15 K, x2 = 0.7023	1246.2	11.56
303.15 K, x2 = 0.799	1220.1	8.206
303.15 K, x2 = 0.901	1164.6	4.552
308.15 K, x2 = 0	1294.9	51.73
308.15 K, x2 = 0.1032	1291	37.23
308.15 K, x2 = 0.1939	1287.7	29.27
308.15 K, x2 = 0.2987	1283	24.28
308.15 K, x2 = 0.3999	1277.3	19.95
308.15 K, x2 = 0.501	1269.3	16.8
308.15 K, x2 = 0.5923	1259.5	13.2
308.15 K, x2 = 0.7023	1242.5	10.13
308.15 K, x2 = 0.799	1216.6	6.932
308.15 K, x2 = 0.901	1160.6	3.869
313.15 K, x2 = 0	1291.4	42.46
313.15 K, x2 = 0.1032	1287.5	30.93
313.15 K, x2 = 0.1939	1284.1	24.46
313.15 K, x2 = 0.2987	1279.4	20.53
313.15 K, x2 = 0.3999	1273.8	16.88
313.15 K, x2 = 0.501	1265.7	13.95
313.15 K, x2 = 0.5923	1255.9	11.21
313.15 K, x2 = 0.7023	1238.8	8.605
313.15 K, x2 = 0.799	1212.9	5.989
313.15 K, x2 = 0.901	1156.7	3.376
318.15 K, x2 = 0	1287.8	35.17
318.15 K, x2 = 0.1032	1283.8	25.04
318.15 K, x2 = 0.1939	1280.4	20.79
318.15 K, x2 = 0.2987	1275.8	17.55
318.15 K, x2 = 0.3999	1270.2	14.38
318.15 K, x2 = 0.501	1262	12
318.15 K, x2 = 0.5923	1252.2	9.907
318.15 K, x2 = 0.7023	1234.9	7.465
318.15 K, x2 = 0.799	1208.9	5.339
318.15 K, x2 = 0.901	1153	3.156
323.15 K, x2 = 0	1284.4	29.55
323.15 K, x2 = 0.1032	1280.3	21.51
323.15 K, x2 = 0.1939	1276.8	18.11
323.15 K, x2 = 0.2987	1272.2	15.17
323.15 K, x2 = 0.3999	1266.5	12.62
323.15 K, x2 = 0.501	1258.3	10.42
323.15 K, x2 = 0.5923	1248.5	8.516
323.15 K, x2 = 0.7023	1231.1	6.576
323.15 K, x2 = 0.799	1205.2	4.57
323.15 K, x2 = 0.901	1150	3.005
333.15 K, x2 = 0	1277.4	21.61
333.15 K, x2 = 0.1032	1273.1	16.07
333.15 K, x2 = 0.1939	1269.7	13.51
333.15 K, x2 = 0.2987	1265	11.61
333.15 K, x2 = 0.3999	1259.3	9.88
333.15 K, x2 = 0.501	1251.1	8.101
333.15 K, x2 = 0.5923	1241.3	6.702
333.15 K, x2 = 0.7023	1223.4	5.137
333.15 K, x2 = 0.799	1197.2	3.618
333.15 K, x2 = 0.901	1142.6	2.099
343.15 K, x2 = 0	1270.5	16.38
343.15 K, x2 = 0.1032	1266	12.44
343.15 K, x2 = 0.1939	1262.6	10.54
343.15 K, x2 = 0.2987	1257.9	9.137
343.15 K, x2 = 0.3999	1252.2	7.816
343.15 K, x2 = 0.501	1244	6.612
343.15 K, x2 = 0.5923	1233.9	5.384
343.15 K, x2 = 0.7023	1215.6	4.24
343.15 K, x2 = 0.799	1189.3	2.936
343.15 K, x2 = 0.901	1134.3	1.714
